Data on 22 compounds can be found in patent US12371428B2 (Exelixis, Inc., priority 2019, dated 2025).

Assay [1] addresses Met (phospho-Met, HGF-stimulated PC-3 prostate cancer cells) (Homo sapiens (Human), UniProt P08581). As to the kind of experiment: Met autophosphorylation ELISA in PC-3 cells (Example F). Format: cell-based. The note with it: cellular activity; Met autophosphorylation ELISA in PC-3 cells; read-out: c-Met IC50. In outline: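 Serum-starved (3 h) PC-3 cells were treated 1 h with compounds (8-point curve, 0.3% DMSO), then stimulated with 100 ng/mL human HGF for 10 min. Lysate phospho-Met (panTyr) was measured by sandwich ELISA, normalised to DMSO and reference-inhibitor controls. IC50 came from 4-parameter logistic fit.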
A general note: An ELISA detects its analyte on a solid surface through an enzyme-linked reagent.

In assay [2] the target is Human MET (residues 956-1390) (Homo sapiens (Human), UniProt P08581). As to the kind of experiment: Human Met kinase assay, HTRF KinEase (Example D-2). Format: biochemical. As to conditions: read-out: c-Met IC50. The procedure, abridged: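 IC50 values come from a 4-parameter logistic fit of the […] fluorescence ratio, set between DMSO (100%) and reference compound at 1 μM (0%). Reactions held MET 956-1390 at 0.1 ng/well, ATP at Km, biotinylated peptide, 5 mM MgCl2, 1 mM MnCl2, 1 mM DTT and 3% DMSO, and ran 40 min at room temperature before streptavidin-XL665/Eu-antibody detection.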

Where [3] appears, read: protocol of Example D-2 (other compounds).

Read-outs that look alike come from different tables or passages of the source. Bounds are passed on as bounds.

Chain of Met (phospho-Met, HGF-stimulated PC-3 prostate cancer cells) (P08581 25-1390): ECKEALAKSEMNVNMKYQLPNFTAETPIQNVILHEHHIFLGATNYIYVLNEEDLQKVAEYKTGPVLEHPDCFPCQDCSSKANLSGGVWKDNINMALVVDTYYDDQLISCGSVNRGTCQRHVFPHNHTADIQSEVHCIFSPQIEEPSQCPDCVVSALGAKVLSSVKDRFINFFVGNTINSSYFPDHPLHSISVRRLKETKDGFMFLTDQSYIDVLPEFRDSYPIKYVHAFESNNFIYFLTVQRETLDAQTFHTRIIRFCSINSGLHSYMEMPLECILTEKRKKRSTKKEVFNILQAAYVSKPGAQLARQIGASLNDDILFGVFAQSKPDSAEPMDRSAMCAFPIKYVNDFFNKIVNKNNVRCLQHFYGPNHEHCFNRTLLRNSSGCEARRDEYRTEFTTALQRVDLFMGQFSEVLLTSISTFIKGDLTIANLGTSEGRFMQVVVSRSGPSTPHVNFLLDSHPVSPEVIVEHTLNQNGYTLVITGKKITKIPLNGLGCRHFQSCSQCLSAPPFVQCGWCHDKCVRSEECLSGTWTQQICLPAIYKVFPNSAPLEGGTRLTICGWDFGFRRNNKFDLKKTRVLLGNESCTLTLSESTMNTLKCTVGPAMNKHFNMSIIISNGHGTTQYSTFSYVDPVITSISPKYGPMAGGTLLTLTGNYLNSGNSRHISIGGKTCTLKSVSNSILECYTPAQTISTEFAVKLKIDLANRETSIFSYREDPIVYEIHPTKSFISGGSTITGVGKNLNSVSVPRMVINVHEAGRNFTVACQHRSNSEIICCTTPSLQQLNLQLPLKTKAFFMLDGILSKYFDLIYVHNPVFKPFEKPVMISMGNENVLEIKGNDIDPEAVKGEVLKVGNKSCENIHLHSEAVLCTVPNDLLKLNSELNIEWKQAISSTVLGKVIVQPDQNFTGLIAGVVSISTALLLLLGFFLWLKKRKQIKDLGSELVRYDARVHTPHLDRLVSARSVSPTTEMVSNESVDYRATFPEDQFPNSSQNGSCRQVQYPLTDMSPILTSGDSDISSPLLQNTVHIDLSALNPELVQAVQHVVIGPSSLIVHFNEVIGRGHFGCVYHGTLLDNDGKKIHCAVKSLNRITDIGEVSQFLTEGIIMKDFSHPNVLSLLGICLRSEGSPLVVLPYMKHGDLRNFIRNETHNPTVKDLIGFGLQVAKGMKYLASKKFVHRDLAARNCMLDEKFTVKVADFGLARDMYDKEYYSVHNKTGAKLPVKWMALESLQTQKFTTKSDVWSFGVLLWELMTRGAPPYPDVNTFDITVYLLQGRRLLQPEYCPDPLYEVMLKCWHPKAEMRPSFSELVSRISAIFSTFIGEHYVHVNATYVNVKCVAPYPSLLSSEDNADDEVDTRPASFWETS
Chain of Human MET (residues 956-1390) (P08581 956-1390): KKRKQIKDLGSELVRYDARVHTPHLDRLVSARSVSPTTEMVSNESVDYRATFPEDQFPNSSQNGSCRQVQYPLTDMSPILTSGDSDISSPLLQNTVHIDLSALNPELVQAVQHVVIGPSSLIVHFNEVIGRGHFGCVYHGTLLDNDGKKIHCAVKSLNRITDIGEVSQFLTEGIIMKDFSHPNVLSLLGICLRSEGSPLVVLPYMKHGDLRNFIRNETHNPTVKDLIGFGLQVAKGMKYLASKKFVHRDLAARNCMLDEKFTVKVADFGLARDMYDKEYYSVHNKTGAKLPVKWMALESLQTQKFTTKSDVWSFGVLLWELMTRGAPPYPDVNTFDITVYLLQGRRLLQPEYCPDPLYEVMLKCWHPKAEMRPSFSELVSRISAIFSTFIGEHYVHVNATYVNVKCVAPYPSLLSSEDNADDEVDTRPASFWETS

`CCc1ncc(C(=O)Nc2ccc(Oc3ccnc4cc(OC)c(OC)nc34)c(F)c2)c(O)c1-c1ccc(F)cc1` [Compound 504, N-[4-[(6,7-dimethoxy-1,5-naphthyridin-4-yl)oxy]-3-fluorophenyl]-6-ethyl-5-(4-fluorophenyl)-4-hydroxypyridine-3-carboxamide]: the half-maximal inhibitory concentration (IC50) in assay [1] and in assay [2] (protocol of Example D-2) was less than 100 nM each time.

`CCn1cc(C(=O)Nc2ccc(Oc3ccnc4cc(OC)c(OC)nc34)cc2)c(=O)c(-c2ccc(F)cc2)c1CF` [Compound 558, N-[4-[(6,7-Dimethoxy-1,5-naphthyridin-4-yl)oxy]phenyl]-1-ethyl-6-(fluoromethyl)-5-(4-fluorophenyl)-4-oxopyridine-3-carboxamide]: the figures for the IC50 in assay [1] and in assay [2] (protocol of Example D-2) were less than 100 nM and 100 to 300 nM, respectively.

As to `COc1cc2nccc(Oc3ccc(NC(=O)c4ccc(C)n(-c5ccc(F)cc5)c4=O)cc3F)c2nc1OC` [Compound 254, N-[4-[(6,7-Dimethoxy-1,5-naphthyridin-4-yl)oxy]-3-fluorophenyl]-1-(4-fluorophenyl)-6-methyl-2-oxopyridine-3-carboxamide], the concentration for half-maximal inhibition (IC50) in assay [1] and in assay [2] (setting [3]) was less than 100 nM in each case.

`C=C(C)c1cnc2c(Oc3ccc(NC(=O)c4cnc(C)c(-c5ccc(F)cc5)c4O)cc3)ccnc2c1` [Compound 454, 5-(4-fluorophenyl)-4-hydroxy-6-methyl-N-[4-[(7-prop-1-en-2-yl-1,5-naphthyridin-4-yl)oxy]phenyl]pyridine-3-carboxamide]: the 50% inhibitory concentration (IC50) in assay [1] and in assay [2] (protocol of Example D-2) was less than 100 nM throughout.

`C=C(C)c1cnc2c(Oc3ccc(NC(=O)c4cnc(C)c(-c5ccc(F)cc5)c4O)cc3F)ccnc2c1` [Compound 456, 5-(4-fluorophenyl)-N-[3-fluoro-4-[(7-prop-1-en-2-yl-1,5-naphthyridin-4-yl)oxy]phenyl]-4-hydroxy-6-methylpyridine-3-carboxamide]: the 50% inhibitory concentration (IC50) in assay [1] and in assay [2] (protocol of Example D-2) was less than 100 nM throughout.

Turning to `COc1ccc2nccc(Oc3ccc(NC(=O)c4c(C)ncc(-c5ccc(F)cc5C)c4O)cc3F)c2n1` [Compound 480, N-[3-fluoro-4-[(6-methoxy-1,5-naphthyridin-4-yl)oxy]phenyl]-5-(4-fluoro-2-methylphenyl)-4-hydroxy-2-methylpyridine-3-carboxamide], the IC50 was less than 100 nM in assay [1] and 100 to 300 nM in assay [2] (protocol of Example D-2).

With `COc1cc2nccc(Oc3ccc(NC(=O)c4cn(C)c(CF)c(-c5ccc(F)cc5C)c4=O)cc3F)c2nc1OC` [Compound 556, N-[4-[(6,7-Dimethoxy-1,5-naphthyridin-4-yl)oxy]-3-fluorophenyl]-6-(fluoromethyl)-5-(4-fluoro-2-methylphenyl)-1-methyl-4-oxopyridine-3-carboxamide], the 50% inhibitory concentration (IC50) in assay [1] is less than 100 nM; in assay [2] (protocol of Example D-2) it was 100 to 300 nM.

For the compound `CCc1nc(C)c(-c2ccc(F)cc2)c(O)c1C(=O)Nc1ccc(Oc2ccnc3ccc(OC)nc23)cc1` [Compound 509, 2-ethyl-5-(4-fluorophenyl)-4-hydroxy-N-[4-[(6-methoxy-1,5-naphthyridin-4-yl)oxy]phenyl]-6-methylpyridine-3-carboxamide], the IC50 in assay [1] and in assay [2] (protocol of Example D-2) was less than 100 nM in each case.

Consider `COc1nc2c(Oc3ccc(NC(=O)c4cnc(C)c(-c5ccc(F)cc5C)c4O)cc3F)ccnc2cc1C` [Compound 460, N-[3-fluoro-4-[(6-methoxy-7-methyl-1,5-naphthyridin-4-yl)oxy]phenyl]-5-(4-fluoro-2-methylphenyl)-4-hydroxy-6-methylpyridine-3-carboxamide], for which the half-inhibitory concentration (IC50) in assay [1] was less than 100 nM; in assay [2] (protocol of Example D-2), 100 to 300 nM.

As to `Cc1nc(C)c(-c2ccc(F)cc2)c(O)c1C(=O)Nc1ccc(Oc2ccnc3cc(O)cnc23)c(F)c1` [Compound 554, N-[3-Fluoro-4-[(7-hydroxy-1,5-naphthyridin-4-yl)oxy]phenyl]-5-(4-fluorophenyl)-4-hydroxy-2,6-dimethylpyridine-3-carboxamide], the IC50 in assay [1] and in assay [2] (protocol of Example D-2) was less than 100 nM throughout.

`COCCOc1ccc2nccc(Oc3ccc(NC(=O)c4c(C)nc(C)c(-c5ccc(F)cc5)c4O)cc3F)c2n1` [Compound 349, N-[3-fluoro-4-[[6-(2-methoxyethoxy)-1,5-naphthyridin-4-yl]oxy]phenyl]-5-(4-fluorophenyl)-4-hydroxy-2,6-dimethylpyridine-3-carboxamide]: the concentration for half-maximal inhibition (IC50) in assay [1] and in assay [2] (setting [3]) was less than 100 nM throughout.

On to `COc1cc2nccc(Oc3ccc(NC(=O)c4c(C)nc(C)c(-c5ccc(F)cc5)c4O)cc3F)c2nc1OC` [Compound 154, N-[4-[(6,7-Dimethoxy-1,5-naphthyridin-4-yl)oxy]-3-fluorophenyl]-5-(4-fluorophenyl)-4-hydroxy-2,6-dimethylpyridine-3-carboxamide], for which the IC50 in assay [1] and in assay [2] (setting [3]) was less than 100 nM throughout.

On to `COCCOc1cc2nccc(Oc3ccc(NC(=O)c4c(COC)nc(C)c(-c5ccc(F)cc5)c4O)cc3F)c2nc1OC` [Compound 482, N-[3-fluoro-4-[[6-methoxy-7-(2-methoxyethoxy)-1,5-naphthyridin-4-yl]oxy]phenyl]-5-(4-fluorophenyl)-4-hydroxy-2-(methoxymethyl)-6-methylpyridine-3-carboxamide], for which the half-inhibitory concentration (IC50) in assay [1] and in assay [2] (protocol of Example D-2) was less than 100 nM in each case.

For `COCCOc1cnc2c(Oc3ccc(NC(=O)c4c(C)nc(C)c(-c5ccc(F)cc5)c4O)cc3F)ccnc2c1` [Compound 555, N-[3-Fluoro-4-[[7-(2-methoxyethoxy)-1,5-naphthyridin-4-yl]oxy]phenyl]-5-(4-fluorophenyl)-4-hydroxy-2,6-dimethylpyridine-3-carboxamide], the IC50 in assay [1] and in assay [2] (protocol of Example D-2) was less than 100 nM in each case.

On to `COc1cc2nccc(Oc3ccc(NC(=O)c4cn(C)c(C(=O)O)c(-c5ccc(F)cc5)c4=O)cc3F)c2nc1OC` [Compound 553, 5-[[4-[(6,7-Dimethoxy-1,5-naphthyridin-4-yl)oxy]-3-fluorophenyl]carbamoyl]-3-(4-fluorophenyl)-1-methyl-4-oxopyridine-2-carboxylic acid], for which the IC50 in assay [1] and in assay [2] (protocol of Example D-2) was less than 100 nM in each case.

As for `COc1cc2nccc(Oc3ccc(NC(=O)c4c(C)ncc(-c5ccc(F)cc5C)c4O)cc3F)c2nc1OC` [Compound 479, N-[4-[(6,7-dimethoxy-1,5-naphthyridin-4-yl)oxy]-3-fluorophenyl]-5-(4-fluoro-2-methylphenyl)-4-hydroxy-2-methylpyridine-3-carboxamide], the IC50 in assay [1] and in assay [2] (protocol of Example D-2) was less than 100 nM in each case.

As for `COc1cc2ncnc(Oc3ccc(NC(=O)c4c5n(cc(-c6ccc(F)cc6)c4=O)CCC5)cc3F)c2cc1OC` [Compound 406, N-[4-(6,7-dimethoxyquinazolin-4-yl)oxy-3-fluorophenyl]-6-(4-fluorophenyl)-7-oxo-2,3-dihydro-1H-indolizine-8-carboxamide], the IC50 in assay [1] and in assay [2] (setting [3]) was less than 100 nM throughout.

For `COc1cnc2c(Oc3ccc(NC(=O)c4nnc(C)c(-c5ccc(F)cc5)c4OC)cc3)ccnc2c1` [Compound 515, 5-(4-fluorophenyl)-4-methoxy-N-[4-[(7-methoxy-1,5-naphthyridin-4-yl)oxy]phenyl]-6-methylpyridazine-3-carboxamide], the 50% inhibitory concentration (IC50) in assay [1] and in assay [2] (protocol of Example D-2) was less than 100 nM throughout.

`Cc1ccc2nccc(Oc3ccc(NC(=O)c4c(C)nc(C)c(-c5ccc(F)cc5C)c4O)cc3F)c2n1` [Compound 506, N-[3-fluoro-4-[(6-methyl-1,5-naphthyridin-4-yl)oxy]phenyl]-5-(4-fluoro-2-methylphenyl)-4-hydroxy-2,6-dimethylpyridine-3-carboxamide]: the IC50 in assay [1] and in assay [2] (protocol of Example D-2) was less than 100 nM in each case.

For the compound `COc1ccc2nccc(Oc3ccc(NC(=O)c4c(C)n(C)cc(-c5ccc(F)cc5C)c4=O)cc3F)c2n1` [Compound 483, N-[3-fluoro-4-[(6-methoxy-1,5-naphthyridin-4-yl)oxy]phenyl]-5-(4-fluoro-2-methylphenyl)-1,2-dimethyl-4-oxopyridine-3-carboxamide], the concentration for half-maximal inhibition (IC50) in assay [1] was less than 100 nM; in assay [2] (protocol of Example D-2) it was more than 300 nM.

In the case of `COc1ccc2nccc(Oc3ccc(NC(=O)c4cn(C)c(CF)c(-c5ccc(F)cc5)c4=O)cc3F)c2n1` [Compound 561, N-[3-Fluoro-4-[(6-methoxy-1,5-naphthyridin-4-yl)oxy]phenyl]-6-(fluoromethyl)-5-(4-fluorophenyl)-1-methyl-4-oxopyridine-3-carboxamide], the half-inhibitory concentration (IC50) in assay [1] is less than 100 nM; in assay [2] (protocol of Example D-2), 100 to 300 nM.

As to `CNc1nccc2c(Oc3ccc(NC(=O)c4cnc(C)n(-c5ccc(F)cc5)c4=O)cc3)ccnc12` [Compound 543, 1-(4-fluorophenyl)-2-methyl-N-[4-[[8-(methylamino)-1,7-naphthyridin-4-yl)oxy]phenyl]-6-oxopyrimidine-5-carboxamide], the IC50 was less than 100 nM in assay [1] and 100 to 300 nM in assay [2] (protocol of Example D-2).

For orientation: IC50 means the concentration that gives 50% inhibition.
